Structures can show the parent of a compound that is named as a salt.

One data set concerns the target T1, human β3-adrenoreceptor (Homo sapiens, UniProt P13945).
T1 construct: expressed in transfected cells; host or cells: CHO cells
Briefly: cAMP radioimmunoassay in CHO cells expressing human β3-adrenoreceptor. The note with it: for EC50: concentration giving 50% of the drug's maximum cAMP response, na = not active at highest concentration used, read-out: h-β3 cAMP EC50; for Emax: maximal response relative to standard reference agonist (isoproterenol = 100%), na = not active, read-out: h-β3 cAMP Max %. It counts as cell-based. The procedure:
(§1) Chinese Hamster Ovary (CHO) cells expressing either human β1-, β2-, or β3-adrenoreceptor subtypes were used. Varying concentrations of each compound were added to the incubated cells and the cyclic AMP (cAMP) generated within the cells was extracted, and determined using a radioimmunoassay. Effective concentration-50 (EC-50) values were measured as the concentration (in nanomolar) of each drug that gave 50% of its maximum cAMP response. The maximal response (Max %) of each tested drug is expressed as a ratio of the drug response to that of a standard reference agonist (e.g., isoproterenol (Max %=100%)). If a compound has no activity for increasing cAMP at the highest concentration used, it is designated as “not active” or “na” in Table I below, which summarizes the testing results. See Konkar et al., Journal of Pharmacology and Experimental Therapeutics 291:875-883 (1999).

The target of a further data set is T2, human β2-adrenoreceptor (Homo sapiens, UniProt P07550).
T2 construct: expressed in transfected cells; host or cells: CHO cells
Briefly: cAMP radioimmunoassay in CHO cells expressing human β2-adrenoreceptor. Type of data set: cell-based. The note with it: maximal response relative to standard reference agonist (isoproterenol = 100%), na = not active, read-out: h-β2 cAMP Max %. On the procedure:
as §1

Another data set addresses T3, human β1-adrenoreceptor (Homo sapiens, UniProt P08588).
T3 construct: expressed in transfected cells; host or cells: CHO cells
Briefly: cAMP radioimmunoassay in CHO cells expressing human β1-adrenoreceptor. Type of data set: cell-based. Conditions: maximal response relative to standard reference agonist (isoproterenol = 100%), na = not active, read-out: h-β1 cAMP Max %. On the procedure: as §1

T2 sequence (P07550 whole entry): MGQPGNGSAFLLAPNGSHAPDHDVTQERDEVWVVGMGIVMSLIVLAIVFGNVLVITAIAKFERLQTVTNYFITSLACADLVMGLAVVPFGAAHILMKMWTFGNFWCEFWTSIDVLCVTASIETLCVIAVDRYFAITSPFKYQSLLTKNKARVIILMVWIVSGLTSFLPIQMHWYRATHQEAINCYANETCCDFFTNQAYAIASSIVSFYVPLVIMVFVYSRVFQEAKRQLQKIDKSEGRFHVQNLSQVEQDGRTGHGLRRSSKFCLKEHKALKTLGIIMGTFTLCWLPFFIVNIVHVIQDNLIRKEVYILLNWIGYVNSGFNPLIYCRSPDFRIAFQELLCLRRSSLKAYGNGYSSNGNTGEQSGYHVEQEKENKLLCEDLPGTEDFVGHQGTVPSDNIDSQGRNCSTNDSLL
T3 sequence (P08588 whole entry): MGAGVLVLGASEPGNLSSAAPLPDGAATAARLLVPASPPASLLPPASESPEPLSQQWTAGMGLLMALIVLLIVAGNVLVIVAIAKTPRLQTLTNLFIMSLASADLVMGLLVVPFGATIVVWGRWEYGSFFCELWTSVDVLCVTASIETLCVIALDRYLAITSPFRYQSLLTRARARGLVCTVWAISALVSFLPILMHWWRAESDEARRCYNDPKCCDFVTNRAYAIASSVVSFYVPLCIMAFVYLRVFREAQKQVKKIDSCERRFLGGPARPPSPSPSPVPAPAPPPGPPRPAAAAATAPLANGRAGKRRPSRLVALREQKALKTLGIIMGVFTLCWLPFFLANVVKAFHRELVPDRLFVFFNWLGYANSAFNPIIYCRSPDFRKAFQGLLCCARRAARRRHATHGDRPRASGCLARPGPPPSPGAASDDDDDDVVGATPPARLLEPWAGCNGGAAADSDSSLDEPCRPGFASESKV
T1 sequence (P13945 whole entry): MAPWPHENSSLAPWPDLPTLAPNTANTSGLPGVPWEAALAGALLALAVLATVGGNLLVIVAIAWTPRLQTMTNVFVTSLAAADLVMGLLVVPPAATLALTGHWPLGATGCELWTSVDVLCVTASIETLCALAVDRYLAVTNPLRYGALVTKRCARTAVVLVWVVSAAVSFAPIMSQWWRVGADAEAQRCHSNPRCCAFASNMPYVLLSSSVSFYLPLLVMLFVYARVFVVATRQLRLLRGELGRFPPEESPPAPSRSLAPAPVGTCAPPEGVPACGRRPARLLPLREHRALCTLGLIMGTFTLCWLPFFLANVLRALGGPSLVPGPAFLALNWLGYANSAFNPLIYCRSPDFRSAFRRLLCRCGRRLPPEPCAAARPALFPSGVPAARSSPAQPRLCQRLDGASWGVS

As for `COc1c(I)cc(CC2NCCc3cc(O)c(NS(C)(=O)=O)cc32)cc1I` (centres unmarked), the EC50 at human β3-adrenoreceptor was 3 nM. For the same molecule, the Emax stood at 98% on human β3-adrenoreceptor, 5% on human β2-adrenoreceptor and 5% on human β1-adrenoreceptor.

For `COc1c(Br)cc(CC2c3cc(NS(C)(=O)=O)c(O)cc3CCN2C)cc1Br` (centres unmarked), the figures for the Emax on human β3-adrenoreceptor, on human β2-adrenoreceptor and at human β1-adrenoreceptor were 39.3%, 24.1% and 16.2%, respectively.

As to `COc1ccc(CC2NCCc3cc(O)c(NS(C)(=O)=O)cc32)cc1` (centres unmarked), the Emax on human β3-adrenoreceptor was found to be 24%.

In the case of `COc1ccc(CC2NCCc3cc(O)c(NS(C)(=O)=O)cc32)cc1OC` (centres unmarked), the EC50 on human β3-adrenoreceptor is 118 nM. The values for the Emax on human β3-adrenoreceptor, on human β2-adrenoreceptor and on human β1-adrenoreceptor were 76.9%, 15.4% and 10.2%, respectively.

Turning to `CS(=O)(=O)Nc1cc2c(cc1O)CCNC2Cc1ccc(Cl)c(Cl)c1` (centres unmarked), at human β3-adrenoreceptor, the 50% effective concentration (EC50) was found to be 9.91 nM and the Emax was determined as 92%.

As to `CS(=O)(=O)Nc1cc2c(cc1N)CCNC2Cc1ccc(Cl)c(Cl)c1` (centres unmarked), the Emax on human β3-adrenoreceptor was found to be 2.24%; on human β2-adrenoreceptor, 10.8%; at human β1-adrenoreceptor, 12.6%.

Regarding `CS(=O)(=O)Nc1cc2c(cc1O)CCNC2Cc1ccc(F)c(F)c1` (centres unmarked), at human β3-adrenoreceptor, the 50% effective concentration (EC50) is 24.4 nM and the Emax stood at 78.3%.

On to `CS(=O)(=O)Nc1cc2c(cc1O)CCNC2Cc1cc(F)cc(F)c1` (centres unmarked), for which, on human β3-adrenoreceptor, the concentration for a half-maximal effect (EC50) is 38.8 nM and the Emax stood at 66.6%.

As for `CCS(=O)(=O)Nc1cc2c(cc1O)CCNC2Cc1cc(Br)c(OC)c(Br)c1` (centres unmarked), on human β3-adrenoreceptor, the EC50 was found to be 1.51 nM and the Emax was determined as 102%. Besides, the Emax at human β1-adrenoreceptor amounted to 8.4%.

Consider `COc1c(Br)cc(CC2NCCc3cc(O)c(NS(=O)(=O)c4ccccc4)cc32)cc1Br` (centres unmarked), for which the concentration for a half-maximal effect (EC50) at human β3-adrenoreceptor was 35.3 nM. Besides, the figures for the Emax on human β3-adrenoreceptor, on human β2-adrenoreceptor and at human β1-adrenoreceptor were 88.2%, 21.4% and 13.1%, respectively.

For `COc1c(Br)cc(CC2NCCc3cc(O)c(NS(=O)(=O)c4ccc(F)cc4)cc32)cc1Br` (centres unmarked), on human β3-adrenoreceptor, the 50% effective concentration (EC50) turned out to be 5.22 nM. The Emax on human β3-adrenoreceptor was 90.4%; on human β2-adrenoreceptor, 13.5%; on human β1-adrenoreceptor, 8.6%.

On to `COc1c(Br)cc(CC2NCCc3cc(O)c(N(S(=O)(=O)c4ccc(F)cc4)S(=O)(=O)c4ccc(F)cc4)cc32)cc1Br` (centres unmarked), for which the figures for the Emax at human β3-adrenoreceptor, at human β2-adrenoreceptor and at human β1-adrenoreceptor were 8.7%, 5.8% and 12.1%, respectively.

Regarding `COc1c(Br)cc(CC2NCCc3cc(O)c(NS(=O)(=O)c4ccc(C)cc4)cc32)cc1Br` (centres unmarked), the EC50 on human β3-adrenoreceptor was 8.46 nM. The Emax amounted to 97.6% on human β3-adrenoreceptor, 8% at human β2-adrenoreceptor and 18.1% on human β1-adrenoreceptor.

With `COc1ccc(S(=O)(=O)Nc2cc3c(cc2O)CCNC3Cc2cc(Br)c(OC)c(Br)c2)cc1` (centres unmarked), on human β3-adrenoreceptor, the concentration for a half-maximal effect (EC50) stood at 8.09 nM and the Emax stood at 88.3%.

As to `COc1c(Br)cc(CC2NCCc3cc(O)c(NS(=O)(=O)c4ccc(OC(F)(F)F)cc4)cc32)cc1Br` (centres unmarked), at human β3-adrenoreceptor, the EC50 worked out at 80.3 nM and the Emax was 65.7%.

For `COc1c(Br)cc(CC2NCCc3cc(O)c(NS(=O)(=O)c4ccc(C(F)(F)F)cc4)cc32)cc1Br` (centres unmarked), the EC50 on human β3-adrenoreceptor was 29.2 nM. In addition, the figures for the Emax at human β3-adrenoreceptor, on human β2-adrenoreceptor and at human β1-adrenoreceptor were 83.3%, 16.6% and 13%, respectively.

Consider `COc1c(Br)cc(CC2NCCc3cc(O)c(NS(=O)(=O)Cc4ccccc4)cc32)cc1Br` (centres unmarked), for which, at human β3-adrenoreceptor, the concentration for a half-maximal effect (EC50) came out at 20.9 nM and the Emax turned out to be 92.2%.

Turning to `COc1c(Br)cc(CC2NCCc3cc(O)c(NS(=O)(=O)/C=C/c4ccccc4)cc32)cc1Br` (centres unmarked), at human β3-adrenoreceptor, the EC50 stood at 23.1 nM and the Emax was 96.6%.

With `COc1c(I)cc(CC2NCCc3cc(O)c(NS(=O)(=O)c4ccc(C)cc4)cc32)cc1I` (centres unmarked), the EC50 at human β3-adrenoreceptor was determined as 2.9 nM. In addition, the Emax on human β3-adrenoreceptor turned out to be 91%; on human β2-adrenoreceptor, 8%; on human β1-adrenoreceptor, 5%.

`CCOC(=O)Nc1cc2c(cc1NS(C)(=O)=O)CCNC2Cc1cc(Br)c(OC)c(Br)c1` (centres unmarked): the Emax at human β3-adrenoreceptor was determined as 8.7%; on human β2-adrenoreceptor, 17.2%; on human β1-adrenoreceptor, 11%.

As for `COc1ccc(S(=O)(=O)Nc2cc3c(cc2O)CCNC3Cc2cc(Br)c(OC)c(Br)c2)cc1` (centres unmarked) (as salt: hydrochloride) [Example 4, N-[1-(3,5-dibromo-4-methoxy-benzyl)-6-hydroxy-1,2,3,4-tetrahydro-isoquinolin-7-yl]-4-methoxy-benzenesulfonamide hydrochloride], the melting point is 226 to 228 °C (dec.).
